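Tested at 5 concentrations; 48 h exposure; 96-well plates; endpoints linearly interpolated, else capped at highest concentration. TGI marks complete inhibition of growth.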
What was measured:
Assay in all cases: growth of human tumour cells (NCI), 48 h
[1] = test system: UO-31 renal
[2] = test system: SF-539 CNS
[3] = test system: HCT-15 colon
[4] = test system: SNB-19 CNS
[5] = test system: M14 melanoma
[6] = test system: HCT-116 colon
[7] = test system: OVCAR-5 ovarian
[8] = test system: MALME-3M melanoma
[9] = test system: K-562 leukemia
[10] = test system: SK-MEL-2 melanoma
[11] = test system: A549 NSCLC
[12] = test system: NCI-H460 lung
[13] = test system: SR leukemia
[14] = test system: UACC-62 melanoma
[15] = test system: HT29 colon
[16] = test system: NCI-H23 lung
[17] = test system: U251 CNS
[18] = test system: MDA-N
[19] = test system: A498 renal
[20] = test system: KM12 colon
[21] = test system: SK-MEL-5 melanoma
[22] = test system: NCI-H226 lung
[23] = test system: OVCAR-3 ovarian
[24] = test system: SF-295 CNS
[25] = test system: NCI-H522 lung
[26] = test system: NCI/ADR-RES ovarian
[27] = test system: EKVX NSCLC
[28] = test system: IGROV1 ovarian
[29] = test system: LOX IMVI melanoma
[30] = test system: SW-620 colon
[31] = test system: UACC-257 melanoma
[32] = test system: SNB-75 CNS
[33] = test system: SK-OV-3 ovarian
[34] = test system: BT-549 breast
[35] = test system: SK-MEL-28 melanoma
[36] = test system: RPMI-8226 leukemia
[37] = test system: RXF 393 renal
[38] = test system: TK-10 renal
[39] = test system: MOLT-4 leukemia
[40] = test system: MDA-MB-435
[41] = test system: COLO 205 colon
[42] = test system: HS 578T breast
[43] = test system: DU-145 prostate
[44] = test system: HL-60(TB) leukemia
[45] = test system: ACHN renal
[46] = test system: SN12C renal
[47] = test system: OVCAR-8 ovarian
[48] = test system: PC-3 prostate
[49] = test system: SF-268 CNS
[50] = test system: 786-0 renal
[51] = test system: CCRF-CEM leukemia
[52] = test system: MDA-MB-231 breast
[53] = test system: CAKI-1 renal
[54] = test system: HCC-2998 colon
[55] = test system: OVCAR-4 ovarian
[56] = test system: HOP-92 NSCLC
[57] = test system: MCF7 breast
[58] = test system: HOP-62 NSCLC

Measured: TGI

CCOC(=O)Cc1cc(=O)oc2cc(O)ccc12
not listed: [54] | [55] | [56] | [57] | [58]
> 100 µM: all other assays above

O=C(O)C(C(C(=O)O)P(=O)(O)O)P(=O)(O)O (centres undefined)
not listed: [12] | [16] | [24] | [25] | [26] | [31] | [37] | [46] | [52] | [53] | [58]
> 100 µM: all other assays above

Cc1cc2c(cc1C)[n+]([O-])c(NCCCN(C)C)c(C#N)[n+]2[O-]
not listed: [21] | [41] | [43] | [52]
> 100 µM: all other assays above
